Measurements: US20250163104A1, “MACROCYCLIC IMMUNOMODULATORS” (priority 2021, published 2025)
pIC50: −log10 of the molar value. Where a SMILES comes first, the peptide text is derived from it. Bridges are numbered along the chain shown (N, C = ends). [ ]: non-standard residue; d: D form. The star is where a group is joined. ξ: configuration not given here. Bip(4'-NHAc) = CC(=O)Nc1ccc(-c2ccc(C[C@H](N)C(=O)O)cc2)cc1; Phe(3-CF3) = N[C@@H](Cc1cccc(C(F)(F)F)c1)C(=O)O; Ala(morpholin-4-yl) = N[C@@H](CN1CCOCC1)C(=O)O; Phe(4-COOH) = N[C@@H](Cc1ccc(C(=O)O)cc1)C(=O)O; Bip = N[C@@H](Cc1ccc(-c2ccccc2)cc1)C(=O)O; Phe(3-Me) = Cc1cccc(C[C@H](N)C(=O)O)c1; 4Pal = N[C@@H](Cc1ccncc1)C(=O)O; 2Thi = N[C@@H](Cc1cccs1)C(=O)O; Cha = N[C@@H](CC1CCCCC1)C(=O)O; Cit = NC(=O)NCCC[C@H](N)C(=O)O; Ile(3ξ) = CCC(C)[C@H](N)C(=O)O; Carboxymethyl = O=C(O)C*; Orn = NCCC[C@H](N)C(=O)O; Dab = NCC[C@H](N)C(=O)O; Dap = NC[C@H](N)C(=O)O

Each compound was assayed against T1, human PD-1 / PD-L1-Ig binding on Jurkat cell line over-expressing human PD-1 (Jurkat-PD-1) (Homo sapiens, UniProt Q15116) (assay: Jurkat-PD-1 Cell Binding High-Content Screening Assay (CBA)). Conditions: Jurkat HPD1_PDL1 IC50, Jurkat-PD-1 cells, PE-labeled PD-L1-Ig 20 nM final.
T1 construct: expressed in transfected cells; host or cells: Jurkat
T1 sequence (Q15116 25-288): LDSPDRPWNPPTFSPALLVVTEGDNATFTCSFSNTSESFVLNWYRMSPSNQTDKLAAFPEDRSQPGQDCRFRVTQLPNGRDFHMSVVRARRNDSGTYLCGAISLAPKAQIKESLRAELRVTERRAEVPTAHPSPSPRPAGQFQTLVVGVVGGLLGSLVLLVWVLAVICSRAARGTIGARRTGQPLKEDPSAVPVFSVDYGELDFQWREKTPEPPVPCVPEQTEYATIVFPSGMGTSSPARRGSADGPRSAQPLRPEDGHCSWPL
Assay type: cell-based
Procedure, shortened: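 Jurkat-hPD-1 cells in DMEM with 10% fetal calf serum receive test compound and are held at 37° C for 2 h. PE-labeled PD-L1-Ig is added at 20 nM final and left for 1 hour. Cells are then fixed and Hoechst-stained, and binding is measured by imaging.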

pIC50 | Structure (SMILES)
7.07 | CC(C)C[C@@H]1NC(=O)[C@H](Cc2c[nH]c3ccccc23)NC(=O)[C@H](CC(=O)O)NC(=O)[C@H](Cc2ccc(O)cc2)NC(=O)[C@H](Cc2ccccc2)NC(=O)CSC[C@@H](C(=O)NCC(N)=O)NC(=O)[C@H]([C@@H](C)O)NC(=O)[C@H](C(C)C)NC(=O)[C@H](CC(C)C)NC(=O)[C@H](CC(N)=O)NC(=O)[C@@H](C)NC(=O)[C@H](CCN)NC(=O)[C@H](C(C)C)NC(=O)[C@H](Cc2ccc(-c3ccccc3)cc2)NC1=O [Compound 1099] ({CH2CO}-FYDWL[Bip]V[Dab][dA]NLVTCG-NH2; thioether N-14)

Same assay, conditions: Jurkat-PD-1 cells, PE-labeled PD-L1-Ig 20 nM final; read-out: Jurkat HPD1_PDL1 IC50

Structure (SMILES) | pIC50
CC(C)C[C@@H]1NC(=O)[C@H](CCN)NC(=O)[C@@H](CC(C)C)NC(=O)[C@H](CCCCN)NC(=O)[C@H](C(C)C)NC(=O)[C@H](Cc2ccc(-c3ccccc3)cc2)NC(=O)[C@H](C(C)C)NC(=O)[C@H](Cc2c[nH]c3ccccc23)NC(=O)[C@H](CC(=O)O)NC(=O)[C@H](Cc2ccc(O)cc2)NC(=O)[C@H](CC(N)=O)NC(=O)CSC[C@@H](C(=O)N[C@@H](C)C(N)=O)NC(=O)[C@H]([C@@H](C)O)NC(=O)[C@H](C(C)C)NC1=O [Compound 1025] ({CH2CO}-NYDWV[Bip]VK[dL][Dab]LVTCA-NH2; thioether N-14) | 7.96
CC(=O)Nc1ccc(-c2ccc(C[C@@H]3NC(=O)[C@H](Cc4cccc(C(F)(F)F)c4)NC(=O)[C@H](CC(=O)O)NC(=O)[C@H](Cc4ccc(C(=O)O)cc4)NC(=O)[C@H](CN4CCOCC4)NC(=O)CSC[C@@H](C(=O)N[C@@H](CCN)C(N)=O)NC(=O)[C@H](CCC(=O)O)NC(=O)[C@H](C(C)C)NC(=O)[C@H](CC4CCCCC4)NC(=O)[C@H](CCN)NC(=O)[C@@H](CC(C)C)NC(=O)[C@H](CCCN)NC(=O)[C@H](Cc4ccc(C(=O)O)cc4)NC(=O)[C@H](Cc4ccc(-c5ccccc5)cc4)NC3=O)cc2)cc1 [Example 2736] ({CH2CO}-[Ala(morpholin-4-yl)][Phe(4-COOH)]D[Phe(3-CF3)][Bip(4'-NHAc)][Bip][Phe(4-COOH)][Orn][dL][Dab][Cha]VEC[Dab]-NH2; thioether N-14) | 8.96
CC(C)C[C@H]1NC(=O)[C@H](CCCN)NC(=O)[C@H](CCC(=O)O)NC(=O)[C@H](Cc2ccc(-c3ccccc3)cc2)NC(=O)[C@H](C(C)C)NC(=O)[C@H](Cc2cccs2)NC(=O)[C@H](CC(=O)O)NC(=O)[C@H](Cc2ccncc2)NC(=O)[C@H](Cc2ccccc2)NC(=O)CSC[C@@H](C(=O)N[C@@H](C)C(N)=O)NC(=O)[C@H]([C@@H](C)O)NC(=O)[C@H](C(C)C)NC(=O)[C@H](CC2CCCCC2)NC(=O)[C@H](CCN)NC1=O [Compound 2200] ({CH2CO}-F[4Pal]D[2Thi]V[Bip]E[Orn][dL][Dab][Cha]VTCA-NH2; thioether N-14) | 7.99
CC[C@H](C)[C@@H]1NC(=O)[C@H](Cc2ccc(-c3ccccc3)cc2)NC(=O)[C@H](C(C)C)NC(=O)[C@H](Cc2c[nH]c3ccccc23)NC(=O)[C@H](CC(=O)O)NC(=O)[C@H](Cc2ccc(C(=O)O)cc2)NC(=O)[C@H](CN)NC(=O)CSC[C@@H](C(=O)N[C@@H](C)C(N)=O)NC(=O)[C@H]([C@@H](C)O)NC(=O)[C@H](C(C)C)NC(=O)[C@H](CC(C)C)NC(=O)[C@H](CCN)NC(=O)[C@@H](CC(C)C)NC(=O)[C@H](CCCN)NC1=O [Compound 1052] ({CH2CO}-[Dap][Phe(4-COOH)]DWV[Bip]I[Orn][dL][Dab]LVTCA-NH2; thioether N-14) | 7.93

Further lines, results first:

pIC50 | Structure (SMILES)
7.81 | CCC(C)[C@@H]1NC(=O)[C@H](Cc2ccc(-c3ccccc3)cc2)NC(=O)[C@H](C(C)C)NC(=O)[C@H](Cc2cccc(C)c2)NC(=O)[C@H](CC(=O)O)NC(=O)[C@H](Cc2ccc(C(=O)O)cc2)NC(=O)[C@H](Cc2ccncc2)NC(=O)CSC[C@@H](C(=O)N[C@@H](CC(N)=O)C(N)=O)NC(=O)[C@H](CO)NC(=O)[C@H](C(C)C)NC(=O)[C@H](CC2CCCCC2)NC(=O)[C@H](CCN)NC(=O)[C@@H](CC(C)C)NC(=O)[C@H](CCCN)NC1=O (stereo partly drawn) [Compound 2298] ({CH2CO}-[4Pal][Phe(4-COOH)]D[Phe(3-Me)]V[Bip][Ile(3ξ)][Orn][dL][Dab][Cha]VSCN-NH2; thioether N-14)
7.82 | Cc1cccc(C[C@@H]2NC(=O)[C@H](CC(=O)O)NC(=O)[C@H](Cc3ccc(C(=O)O)cc3)NC(=O)[C@H](Cc3ccncc3)NC(=O)CSC[C@@H](C(=O)N[C@@H](CC(N)=O)C(N)=O)NC(=O)[C@H](CCC(=O)O)NC(=O)[C@H](C(C)C)NC(=O)[C@H](CC3CCCCC3)NC(=O)[C@H](CCN)NC(=O)[C@@H](CC(C)C)NC(=O)[C@H](CCCN)NC(=O)[C@H](Cc3ccc(OCC(=O)O)cc3)NC(=O)[C@H](Cc3ccc(-c4ccccc4)cc3)NC(=O)[C@H](Cc3ccc(OCC(=O)O)cc3)NC2=O)c1 [Compound 2304] ({CH2CO}-[4Pal][Phe(4-COOH)]D[Phe(3-Me)]Y(Carboxymethyl)[Bip]Y(Carboxymethyl)[Orn][dL][Dab][Cha]VECN-NH2; thioether N-14)
7.80 | CC[C@H](C)[C@@H]1NC(=O)[C@H](Cc2ccc(-c3ccccc3)cc2)NC(=O)[C@H](C(C)C)NC(=O)[C@H](Cc2cccc(C)c2)NC(=O)[C@H](CC(=O)O)NC(=O)[C@H](Cc2ccc(C(=O)O)cc2)NC(=O)[C@H](Cc2ccncc2)NC(=O)CSC[C@@H](C(N)=O)NC(=O)[C@H]([C@@H](C)O)NC(=O)[C@H](C(C)C)NC(=O)[C@H](CC2CCCCC2)NC(=O)[C@H](CCN)NC(=O)[C@@H](CC(C)C)NC(=O)[C@H](CCCN)NC1=O [Compound 1547] ({CH2CO}-[4Pal][Phe(4-COOH)]D[Phe(3-Me)]V[Bip]I[Orn][dL][Dab][Cha]VTC-NH2; thioether N-14)
7.87 | Cc1cccc(C[C@@H]2NC(=O)[C@H](CC(=O)O)NC(=O)[C@H](Cc3ccc(OCC(=O)O)cc3)NC(=O)[C@H](CCN)NC(=O)CSC[C@@H](C(=O)N[C@@H](CCN)C(N)=O)NC(=O)[C@H](Cc3cnc[nH]3)NC(=O)[C@H](C(C)C)NC(=O)[C@H](CC3CCCCC3)NC(=O)[C@H](CCN)NC(=O)[C@@H](CC(C)C)NC(=O)[C@H](CCCN)NC(=O)[C@H](Cc3ccc(OCC(=O)O)cc3)NC(=O)[C@H](Cc3ccc(-c4ccccc4)cc3)NC(=O)[C@H](C(C)C)NC2=O)c1 [Compound 2644] ({CH2CO}-[Dab]Y(Carboxymethyl)D[Phe(3-Me)]V[Bip]Y(Carboxymethyl)[Orn][dL][Dab][Cha]VHC[Dab]-NH2; thioether N-14)
7.89 | Cc1cccc(C[C@@H]2NC(=O)[C@H](CC(=O)O)NC(=O)[C@H](Cc3ccc(OCC(=O)O)cc3)NC(=O)[C@H](CCCNC(=N)N)NC(=O)CSC[C@@H](C(=O)N[C@@H](CO)C(N)=O)NC(=O)[C@H](CO)NC(=O)[C@H](C(C)C)NC(=O)[C@H](CC3CCCCC3)NC(=O)[C@H](CCCNC(=N)N)NC(=O)[C@@H](CC(C)C)NC(=O)[C@H](CCCN)NC(=O)[C@H](CCCNC(N)=O)NC(=O)[C@H](Cc3ccc(-c4ccccc4)cc3)NC(=O)[C@H](C(C)C)NC2=O)c1 [Compound 2597] ({CH2CO}-RY(Carboxymethyl)D[Phe(3-Me)]V[Bip][Cit][Orn][dL]R[Cha]VSCS-NH2; thioether N-14)
